According to patent US9040067B2, “Disinfecting and antimicrobial compositions” (priority 2005, dated 2015):

Key:
Format in all cases: cell-based
Saccharomyces cerevisiae = experiment: MIC and MLC against yeast in Sab. broth; conditions: for Lethal (MLC) Concentration 1% / Inhibitory (MIC) Concentration 1%: 1% ester; for Lethal (MLC) Concentration 1.5% / Inhibitory (MIC) Concentration 1.5%: 1.5% ester; for Lethal (MLC) Concentration 2% / Inhibitory (MIC) Concentration 2%: 2% ester; for Lethal (MLC) Concentration 3% / Inhibitory (MIC) Concentration 3%: 3% ester; for Lethal (MLC) Concentration 4% / Inhibitory (MIC) Concentration 4%: 4% ester; for Lethal (MLC) Concentration 1%: key: + = growth (inactive); − = no growth (active); for Lethal (MLC) Concentration 1.5%: key: + = growth (inactive); − = no growth (active); for Lethal (MLC) Concentration 2%: key: + = growth (inactive); − = no growth (active); for Lethal (MLC) Concentration 3%: key: + = growth (inactive); − = no growth (active); for Lethal (MLC) Concentration 4%: key: + = growth (inactive); − = no growth (active)
Procedure: A 0.1 ml of 1/100 dilution of 48 hr old culture of S. cerevisiae was used as inoculum. The test was performed using Sab. broth. The tubes were incubated at room temperature 25° C. The test was read after 48 hrs.

Listeria monocytogenes = experiment: MIC/MLC in brain heart infusion broth; note: key: + = growth (inactive); − = no growth (active)
Procedure: (§1) The tests were carried out in 10 ml of brain heart infusion broth. The esters were serially diluted in brain heart infusion broth of samples of, 0.1, 0.2, 0.3, 0.4 and 0.5/10 ml and challenged with 0.1 ml of 1/100 dilution of 24 hr old brain heart infusion bacterial culture. The lowest concentration determined the minimum inhibitory concentration (MIC). The samples were observed after 48 hrs at 37° C. A loopful from tubes without growth were plated on BHI agar plates and observed for growth for 24 to 48 hrs at 37° C. The samples with the lowest concentration of the ester without bacterial growth on the plates represented the minimum lethal concentration (MLC).
(§2) A series of samples of (a) methyl lactate, (b) ethyl lactate and (c) butyl lactate, alone, and in admixture with varying amounts of decyl lactate and sodium dodecyl sulfates were used to test minimum inhibitory activity (MIC) by the method described in Example II, against the cultures of E. coli 0157 H7, Listeria monocytogenes, Staphylococcus aureus, Salmonella typhi, and Pseudomonas aeruginosa.

Pseudomonas aeruginosa = experiment: MIC/MLC in brain heart infusion broth; conditions: for MIC, Concentration of Lactic Esters 0.5%: 0.5% ester; for MIC, Concentration of Lactic Esters 1%: 1% ester; for MIC, Concentration of Lactic Esters 2%: 2% ester; for MIC, Concentration of Lactic Esters 3%: 3% ester; for MIC, Concentration of Lactic Esters 4%: 4% ester; for MIC, Concentration of Lactic Esters 5%: 5% ester; for all read-outs here: key: + = growth (inactive); − = no growth (active)
Procedure: as §1, §2

CCCCOC(=O)C(C)O (stereo not shown) [Butyl lactate, butyl lactate]
−: Lethal (MLC) Concentration 1% (Saccharomyces cerevisiae) | Inhibitory (MIC) Concentration 1% (Saccharomyces cerevisiae; 48 hrs, 25° C) | Inhibitory (MIC) Concentration 1% (Saccharomyces cerevisiae; Sodium lauryl sulfate 200 ppm) | Lethal (MLC) Concentration 1% (Saccharomyces cerevisiae; Sodium lauryl sulfate 200 ppm) | Lethal (MLC) Concentration 1.5% (Saccharomyces cerevisiae) | Inhibitory (MIC) Concentration 1.5% (Saccharomyces cerevisiae; 48 hrs, 25° C) | Inhibitory (MIC) Concentration 1.5% (Saccharomyces cerevisiae; Sodium lauryl sulfate 200 ppm) | Lethal (MLC) Concentration 1.5% (Saccharomyces cerevisiae; Sodium lauryl sulfate 200 ppm) | Lethal (MLC) Concentration 2% (Saccharomyces cerevisiae) | Inhibitory (MIC) Concentration 2% (Saccharomyces cerevisiae; 48 hrs, 25° C) | Inhibitory (MIC) Concentration 2% (Saccharomyces cerevisiae; Sodium lauryl sulfate 200 ppm) | Lethal (MLC) Concentration 2% (Saccharomyces cerevisiae; Sodium lauryl sulfate 200 ppm) | Lethal (MLC) Concentration 3% (Saccharomyces cerevisiae) | Inhibitory (MIC) Concentration 3% (Saccharomyces cerevisiae; 48 hrs, 25° C) | Inhibitory (MIC) Concentration 3% (Saccharomyces cerevisiae; Sodium lauryl sulfate 200 ppm) | Lethal (MLC) Concentration 3% (Saccharomyces cerevisiae; Sodium lauryl sulfate 200 ppm) | Lethal (MLC) Concentration 4% (Saccharomyces cerevisiae) | Inhibitory (MIC) Concentration 4% (Saccharomyces cerevisiae; 48 hrs, 25° C) | Inhibitory (MIC) Concentration 4% (Saccharomyces cerevisiae; Sodium lauryl sulfate 200 ppm) | Lethal (MLC) Concentration 4% (Saccharomyces cerevisiae; Sodium lauryl sulfate 200 ppm) | MLC, Concentration of Butyl lactate 2% (Listeria monocytogenes; 2%) | MLC, Concentration of Butyl lactate 3% (Listeria monocytogenes; 3%) | MLC, Concentration of Butyl lactate 4% (Listeria monocytogenes; 4%) | MLC, Concentration of Butyl lactate 5% (Listeria monocytogenes; 5%) | MIC, Concentration of Lactic Esters 0.5% (Pseudomonas aeruginosa; SDS 50 ppm) | MIC, Concentration of Lactic Esters 0.5% (Pseudomonas aeruginosa; SDS 100 ppm) | MIC, Concentration of Lactic Esters 0.5% (Pseudomonas aeruginosa; SDS 200 ppm) | MIC, Concentration of Lactic Esters 1% (Pseudomonas aeruginosa; SDS 50 ppm) | MIC, Concentration of Lactic Esters 1% (Pseudomonas aeruginosa; SDS 100 ppm) | MIC, Concentration of Lactic Esters 1% (Pseudomonas aeruginosa; SDS 200 ppm) | MIC, Concentration of Lactic Esters 2% (Pseudomonas aeruginosa; SDS 0.0 ppm) | MIC, Concentration of Lactic Esters 2% (Pseudomonas aeruginosa; SDS 50 ppm) | MIC, Concentration of Lactic Esters 2% (Pseudomonas aeruginosa; SDS 100 ppm) | MIC, Concentration of Lactic Esters 2% (Pseudomonas aeruginosa; SDS 200 ppm) | MLC, Concentration of Butyl lactate 3% (Pseudomonas aeruginosa; 3%) | MIC, Concentration of Lactic Esters 3% (Pseudomonas aeruginosa; SDS 0.0 ppm) | MIC, Concentration of Lactic Esters 3% (Pseudomonas aeruginosa; SDS 50 ppm) | MIC, Concentration of Lactic Esters 3% (Pseudomonas aeruginosa; SDS 100 ppm) | MIC, Concentration of Lactic Esters 3% (Pseudomonas aeruginosa; SDS 200 ppm) | MLC, Concentration of Butyl lactate 4% (Pseudomonas aeruginosa; 4%) | MIC, Concentration of Lactic Esters 4% (Pseudomonas aeruginosa; SDS 0.0 ppm) | MIC, Concentration of Lactic Esters 4% (Pseudomonas aeruginosa; SDS 50 ppm) | MIC, Concentration of Lactic Esters 4% (Pseudomonas aeruginosa; SDS 100 ppm) | MIC, Concentration of Lactic Esters 4% (Pseudomonas aeruginosa; SDS 200 ppm) | MLC, Concentration of Butyl lactate 5% (Pseudomonas aeruginosa; 5%) | MIC, Concentration of Lactic Esters 5% (Pseudomonas aeruginosa; SDS 0.0 ppm) | MIC, Concentration of Lactic Esters 5% (Pseudomonas aeruginosa; SDS 50 ppm) | MIC, Concentration of Lactic Esters 5% (Pseudomonas aeruginosa; SDS 100 ppm) | MIC, Concentration of Lactic Esters 5% (Pseudomonas aeruginosa; SDS 200 ppm)
+: MLC, Concentration of Butyl lactate 0.5% (Listeria monocytogenes; 0.5%) | MLC, Concentration of Butyl lactate 1% (Listeria monocytogenes; 1%) | MLC, Concentration of Butyl lactate 0.5% (Pseudomonas aeruginosa; 0.5%) | MIC, Concentration of Lactic Esters 0.5% (Pseudomonas aeruginosa; SDS 0.0 ppm) | MLC, Concentration of Butyl lactate 1% (Pseudomonas aeruginosa; 1%) | MIC, Concentration of Lactic Esters 1% (Pseudomonas aeruginosa; SDS 0.0 ppm) | MLC, Concentration of Butyl lactate 2% (Pseudomonas aeruginosa; 2%)

COC(=O)C(C)O (stereo not shown) [Methyl lactate, methyl lactate]
−: Lethal (MLC) Concentration 3% (Saccharomyces cerevisiae) | Inhibitory (MIC) Concentration 3% (Saccharomyces cerevisiae; 48 hrs, 25° C) | Inhibitory (MIC) Concentration 3% (Saccharomyces cerevisiae; Sodium lauryl sulfate 200 ppm) | Lethal (MLC) Concentration 3% (Saccharomyces cerevisiae; Sodium lauryl sulfate 200 ppm) | Lethal (MLC) Concentration 4% (Saccharomyces cerevisiae) | Inhibitory (MIC) Concentration 4% (Saccharomyces cerevisiae; 48 hrs, 25° C) | Inhibitory (MIC) Concentration 4% (Saccharomyces cerevisiae; Sodium lauryl sulfate 200 ppm) | Lethal (MLC) Concentration 4% (Saccharomyces cerevisiae; Sodium lauryl sulfate 200 ppm) | MIC, Concentration of Lactic Esters 0.5% (Pseudomonas aeruginosa; SDS 50 ppm) | MIC, Concentration of Lactic Esters 0.5% (Pseudomonas aeruginosa; SDS 100 ppm) | MIC, Concentration of Lactic Esters 0.5% (Pseudomonas aeruginosa; SDS 200 ppm) | MIC, Concentration of Lactic Esters 1% (Pseudomonas aeruginosa; SDS 50 ppm) | MIC, Concentration of Lactic Esters 1% (Pseudomonas aeruginosa; SDS 100 ppm) | MIC, Concentration of Lactic Esters 1% (Pseudomonas aeruginosa; SDS 200 ppm) | MIC, Concentration of Lactic Esters 2% (Pseudomonas aeruginosa; SDS 0.0 ppm) | MIC, Concentration of Lactic Esters 2% (Pseudomonas aeruginosa; SDS 50 ppm) | MIC, Concentration of Lactic Esters 2% (Pseudomonas aeruginosa; SDS 100 ppm) | MIC, Concentration of Lactic Esters 2% (Pseudomonas aeruginosa; SDS 200 ppm) | MIC, Concentration of Lactic Esters 3% (Pseudomonas aeruginosa; SDS 0.0 ppm) | MIC, Concentration of Lactic Esters 3% (Pseudomonas aeruginosa; SDS 50 ppm) | MIC, Concentration of Lactic Esters 3% (Pseudomonas aeruginosa; SDS 100 ppm) | MIC, Concentration of Lactic Esters 3% (Pseudomonas aeruginosa; SDS 200 ppm) | MIC, Concentration of Lactic Esters 4% (Pseudomonas aeruginosa; SDS 0.0 ppm) | MIC, Concentration of Lactic Esters 4% (Pseudomonas aeruginosa; SDS 50 ppm) | MIC, Concentration of Lactic Esters 4% (Pseudomonas aeruginosa; SDS 100 ppm) | MIC, Concentration of Lactic Esters 4% (Pseudomonas aeruginosa; SDS 200 ppm) | MIC, Concentration of Lactic Esters 5% (Pseudomonas aeruginosa; SDS 0.0 ppm) | MIC, Concentration of Lactic Esters 5% (Pseudomonas aeruginosa; SDS 50 ppm) | MIC, Concentration of Lactic Esters 5% (Pseudomonas aeruginosa; SDS 100 ppm) | MIC, Concentration of Lactic Esters 5% (Pseudomonas aeruginosa; SDS 200 ppm)
+: Lethal (MLC) Concentration 1% (Saccharomyces cerevisiae) | Inhibitory (MIC) Concentration 1% (Saccharomyces cerevisiae; 48 hrs, 25° C) | Inhibitory (MIC) Concentration 1% (Saccharomyces cerevisiae; Sodium lauryl sulfate 200 ppm) | Lethal (MLC) Concentration 1% (Saccharomyces cerevisiae; Sodium lauryl sulfate 200 ppm) | Lethal (MLC) Concentration 1.5% (Saccharomyces cerevisiae) | Inhibitory (MIC) Concentration 1.5% (Saccharomyces cerevisiae; 48 hrs, 25° C) | Inhibitory (MIC) Concentration 1.5% (Saccharomyces cerevisiae; Sodium lauryl sulfate 200 ppm) | Lethal (MLC) Concentration 1.5% (Saccharomyces cerevisiae; Sodium lauryl sulfate 200 ppm) | Lethal (MLC) Concentration 2% (Saccharomyces cerevisiae) | Inhibitory (MIC) Concentration 2% (Saccharomyces cerevisiae; 48 hrs, 25° C) | Inhibitory (MIC) Concentration 2% (Saccharomyces cerevisiae; Sodium lauryl sulfate 200 ppm) | Lethal (MLC) Concentration 2% (Saccharomyces cerevisiae; Sodium lauryl sulfate 200 ppm) | MIC, Concentration of Lactic Esters 0.5% (Pseudomonas aeruginosa; SDS 0.0 ppm) | MIC, Concentration of Lactic Esters 1% (Pseudomonas aeruginosa; SDS 0.0 ppm)
